Results reported in patent publication US4267180A, “Novel antibacterial amide compounds and process means for producing the same” (Warner-Lambert Company, priority 1980, dated 1981).

What was measured:
Experiment in all cases: Minimal Inhibitory Concentration, in vitro
Type in all cases: cell-based
Parameters in all cases: unit not given here
[1] = system: Enterobacter Cloacae IMM-11
Description: (§1) The compounds of the invention are new chemical compounds that are useful as pharmacological agents and especially as broad spectrum antibacterial agents. They are active in vitro against strains of both gram-positive and gram-negative bacteria.
(§2) Minimal Inhibitory Concentration

[2] = system: Klebsiella Pneumoniae MGH-2
Description: as §1, §2

Proteus Vulgaris 1810 = system: Proteus Vulgaris 1810
Description: as §1, §2

[3] = system: Pseudomonas Aeruginosa #28
Description: as §1, §2

[4] = system: Pseudomonas Aeruginosa UI-18
Description: as §1, §2

[5] = system: Serratia Marcescens IMM-16
Description: as §1, §2

Staph Aureus UC-76 = system: Staph Aureus UC-76
Description: as §1, §2

Compound	Minimal Inhibitory Concentration [1]	Minimal Inhibitory Concentration [2]	Minimal Inhibitory Concentration (Proteus Vulgaris 1810)	Minimal Inhibitory Concentration [3]	Minimal Inhibitory Concentration [4]	Minimal Inhibitory Concentration [5]	Minimal Inhibitory Concentration (Staph Aureus UC-76)
CC1(C)S[C@@H]2[C@H](NC(=O)[C@H](NC(=O)c3cnc(-c4ccc(NC(=O)[C@@H]5CCC(=O)N5)cc4)nc3O)c3ccc(O)cc3)C(=O)N2[C@H]1C(=O)O [5-Oxo-L-Prolyl, N-[2-[4-((5-oxo-L-prolyl)amino)phenyl]-4-hydroxy-5-pyrimidinylcarbonyl]amoxicillin]	6.3	50	0.8	0.8	1.6	12.5	0.8
CC1(C)S[C@@H]2[C@H](NC(=O)[C@H](NC(=O)c3cnc(-c4ccc(NC(=O)CNC(N)=O)cc4)nc3O)c3ccc(O)cc3)C(=O)N2[C@H]1C(=O)O [N-Carbamoyl Glycyl, N-[2-[4-(N-Carbamoylglycylamino)phenyl]-4-hydroxy-5-pyrimidinylcarbonyl]amoxicillin]	25	50	3.1	0.8	1.6	25	0.8
CCC(=O)N[C@@H](C)C(=O)Nc1ccc(-c2ncc(C(=O)N[C@@H](C(=O)N[C@@H]3C(=O)N4[C@@H]3SC(C)(C)[C@@H]4C(=O)O)c3ccc(O)cc3)c(O)n2)cc1 [N-Propionyl-L-Alanyl, N-[2-[4-(N-Propionyl-L-alanylamino)phenyl]-4-hydroxy-5-pyrimidinylcarbonyl]amoxicillin]	3.1	50	3.1	1.6	0.8	12.5	0.8
CC(=O)NC(C)(C)C(=O)Nc1ccc(-c2ncc(C(=O)N[C@@H](C(=O)N[C@@H]3C(=O)N4[C@@H]3SC(C)(C)[C@@H]4C(=O)O)c3ccc(O)cc3)c(O)n2)cc1 [N-Acetylamino Isobutyryl, N-[2-[4-(alpha-Acetamidoisobutyrylamino)phenyl]-4-hydroxy-5-pyrimidinylcarbonyl]amoxicillin]	6.3	> 50	0.4	0.8	0.8	12.5	1.6
CC(=O)NCCCCC(NC(C)=O)C(=O)Nc1ccc(-c2ncc(C(=O)N[C@@H](C(=O)N[C@@H]3C(=O)N4[C@@H]3SC(C)(C)[C@@H]4C(=O)O)c3ccc(O)cc3)c(O)n2)cc1 (mixture of isomers) [N,N'-Diacetyl-DL-Lysyl, N-[2-[4-(N,N'-Diacetyl-DL-lysylamino)phenyl]-4-hydroxy-5-pyrimidinylcarbonyl]amoxicillin]	25	> 50	6.3	1.6	3.1	50	1.6
CC(=O)NCCC(=O)Nc1ccc(-c2ncc(C(=O)N[C@@H](C(=O)N[C@@H]3C(=O)N4[C@@H]3SC(C)(C)[C@@H]4C(=O)O)c3ccc(O)cc3)c(O)n2)cc1 [N-Acetyl-beta-Alanyl, N-[2-[4-(N-Acetyl-beta-alanylamino)phenyl]-4-hydroxy-5-pyrimidinylcarbonyl]amoxicillin]	6.3	25	0.8	0.8	0.8	6.3	0.4
CC1(C)S[C@@H]2[C@H](NC(=O)[C@H](NC(=O)c3cnc(-c4ccc(NC(=O)CN5CCCC5=O)cc4)nc3O)c3ccc(O)cc3)C(=O)N2[C@H]1C(=O)O [(2-Oxo-1-pyrrolidinyl)acetyl, N-[2-[4-[(2-Oxo-1-pyrrolidinyl)acetylamino]phenyl]-4-hydroxy-5-pyrimidinylcarbonyl]amoxicillin]	12.5	25	1.6	1.6	3.1	25	1.6
CC(=O)NC(C(=O)Nc1ccc(-c2ncc(C(=O)N[C@@H](C(=O)N[C@@H]3C(=O)N4[C@@H]3SC(C)(C)[C@@H]4C(=O)O)c3ccc(O)cc3)c(O)n2)cc1)C(C)C (mixture of isomers) [N-Acetyl-DL-Valyl, N-[2-[4-(N-Acetyl-DL-valylamino)phenyl]-4-hydroxy-5-pyrimidinylcarbonyl]amoxicillin]	25	> 50	3.1	1.6	1.6	25	3.1
CC(=O)N[C@@H](C)C(=O)Nc1ccc(-c2ncc(C(=O)N[C@@H](C(=O)N[C@@H]3C(=O)N4[C@@H]3SC(C)(C)[C@@H]4C(=O)O)c3ccc(O)cc3)c(O)n2)cc1 [N-Acetyl-L-Alanyl, N-[2-[4-(N-acetyl-L-alanylamino)phenyl]-4-hydroxy-5-pyrimidinylcarbonyl]amoxicillin]	6.3	50	0.8	1.6	0.8	12.5	0.4
CC(=O)NC(C)C(=O)Nc1ccc(-c2ncc(C(=O)N[C@@H](C(=O)N[C@@H]3C(=O)N4[C@@H]3SC(C)(C)[C@@H]4C(=O)O)c3ccc(O)cc3)c(O)n2)cc1 (mixture of isomers) [N-Acetyl-DL-Alanyl, N-[2-[4-(N-Acetyl-DL-alanylamino)phenyl]-4-hydroxy-5-pyrimidinyl-carbonyl]amoxicillin]	6.3	25	0.8	1.6	1.6	6.3	0.2
CC(=O)NC(CC(C)C)C(=O)Nc1ccc(-c2ncc(C(=O)N[C@@H](C(=O)N[C@@H]3C(=O)N4[C@@H]3SC(C)(C)[C@@H]4C(=O)O)c3ccc(O)cc3)c(O)n2)cc1 (mixture of isomers) [N-Acetyl-DL-Leucyl, N-[2-[4-(N-Acetyl-DL-leucylamino)phenyl]-4-hydroxy-5-pyrimidinylcarbonyl]amoxicillin]	25	> 50	3.1	3.1	3.1	25	1.6
CC(=O)NCC(=O)Nc1ccc(-c2ncc(C(=O)N[C@@H](C(=O)N[C@@H]3C(=O)N4[C@@H]3SC(C)(C)[C@@H]4C(=O)O)c3ccc(O)cc3)c(O)n2)cc1 [N-Acetyl Glycyl]	6.3	50	1.6	1.6	6.3	6.3	0.8
CC(=O)N1CC(O)C[C@H]1C(=O)Nc1ccc(-c2ncc(C(=O)N[C@@H](C(=O)N[C@@H]3C(=O)N4[C@@H]3SC(C)(C)[C@@H]4C(=O)O)c3ccc(O)cc3)c(O)n2)cc1 (stereo partly drawn) [N-Acetyl-L-Hydroxyprolyl, N-[2-[4-(N-Acetyl-L-hydroxyprolylamino)phenyl]-4-hydroxy-5-pyrimidinylcarbonyl]amoxicillin]	12.5	50	3.1	1.6	1.6	50	0.8
CSCCC(NC(C)=O)C(=O)Nc1ccc(-c2ncc(C(=O)N[C@@H](C(=O)N[C@@H]3C(=O)N4[C@@H]3SC(C)(C)[C@@H]4C(=O)O)c3ccc(O)cc3)c(O)n2)cc1 (mixture of isomers) [N-Acetyl-DL-Methionyl, N-[2-[4-(N-acetyl-DL-methionylamino)phenyl]-4-hydroxy-5-pyrimidinylcarbonyl]amoxicillin]	12.5	50	3.1	1.6	1.6	12.5	1.6
CC(=O)N[C@@H](Cc1ccc(O)cc1)C(=O)Nc1ccc(-c2ncc(C(=O)N[C@@H](C(=O)N[C@@H]3C(=O)N4[C@@H]3SC(C)(C)[C@@H]4C(=O)O)c3ccc(O)cc3)c(O)n2)cc1 [N-Acetyl-L-Tyrosyl, N-[2-[4-(N-Acetyl-L-tyrosylamino)phenyl]-4-hydroxy-5-pyrimidinylcarbonyl]amoxicillin]	12.5	50	3.1	1.6	3.1	12.5	1.6
N-[2-[4-(N-Acetyl-DL-glutaminylamino)phenyl]-4-hydroxy-5-pyrimidinylcarbonyl]amoxicillin [N-Acetyl-L-Glutaminyl]	12.5	> 50	0.8	3.1	3.1	25	3.1
